Test results as given in patent US9783518B2, “Therapeutic agent and treatment method for ameliorating uremia” (Toray Industries, Inc., priority 2005, dated 2017).

What was measured:
[1] = system: dog with chronic renal failure; assay: BUN and serum Cre in dog with chronic renal failure (Case-H); format: in vivo; settings: 150 μg/capsule oral twice a day alone
Experimental: The criteria and evaluation items for the cats and dogs with chronic renal failure are as follows: Diagnosis of uremia and chronic renal failure were performed totally taking clinical findings (including findings of uremia) and the results of the blood test, blood biochemical analysis and urinalysis into consideration. As the clinical findings of uremia, existence and degree of polydipsia and diuresis, dehydration, anorexia, weight loss, vomiting symptom and state of dehydration were observed. Existence of chronic renal failure was judged based on the serum Cre value as generally employed. As reference data for grasping the degree of progress of chronic renal failure, BUN value was also monitored.
In the blood test, RBC, WBC, PCV, Hg and PLT were measured. In the blood biochemical analysis, TP, Tcho, AST, ALT, ALP, Tbil, BUN, creatinine, calcium, inorganic phosphorus, glucose, sodium ion, potassium ion and chloride ion were measured. In the urinalysis, protein amount, pH, occult blood, bilirubin and glucose were measured. To eliminate the circadian rhythm and influence by meals on the values of blood biochemical markers, every blood collection was carried out in the morning before feeding (at fasting).
As a more specific criterion for chronic renal failure in cats and dogs in the present Examples, a serum Cre value of 1.4 mg/dL in the blood test was employed. Serum Cre value was measured by creatinine deaminase-amidohydrolase method, and the BUN value as reference data for grasping the degree of progress of chronic renal failure was measured by urease-GLDH method.
In view of this, after obtaining consent by the client, treatment with Covalzin was stopped, and switched to administration of beraprost sodium alone. Beraprost sodium was diluted with polyethylene glycol (Wako) to attain a dose of 150 μg/capsule, and was divided into capsules (size 5 Shionogi Qualicaps). Beraprost sodium was orally administered twice a day at fasting. […] In the above-described series of therapy, feeding of a formula meal and infusion were not performed at all.

[2] = system: cats with chronic renal failure; assay: Adverse events during treatment of cats with chronic renal failure; format: in vivo, cat
Experimental: This pilot clinical test was performed after obtaining informed consent of the owners of the cats (clients) before the start of the test, wherein the clients received explanations about the fact that beraprost sodium had already been approved as a drug for human chronic artery obstruction and had already been marketed, and about the safety thereof. Further, giving first priority to the benefit of the patients and clients, conventional therapeutic methods were also combined appropriately for the individuals with progressed renal failure. Examples of the concomitant drugs employed include synthetic active carbons such as Covalzin, Kremezin and Nefguard; calcium preparations such as calcium carbonate; formula meals such as k/d and low-protein diets; and infusion solutions. However, in cases where there was a rational reason and consent by the owner was obtained, beraprost sodium alone was administered even to the individual with progressed renal failure. On the other hand, drugs thought to influence on the action of beraprost sodium, such as vasodilators (e.g., enalapril), diuretic (e.g., furosemide), drugs which influence on renal blood flow (e.g., dopamine) and steroids (e.g., prednisolone) were not used.
(§1) […] The administration was conducted every day and continued basically for 6 months, and in cases where the owner desired, the administration was continued even after the test period. The Examples of the present invention include both cases where the dosing period was less than 6 months and more than 6 months.

[3] = system: cats with chronic renal failure; assay: Clinical score of uremic symptoms (activity + appetite) in cats with chronic renal failure; format: in vivo, cat; settings: Case-G; 40 μg/head/BID; Day 14, kept up to Day 56; 3 points before
healthy cats = assay: Blood pressure and heart rate (oscillometric) in healthy cats; format: in vivo, cat
Experimental: In this study, 3 male cats and 2 female cats, totally 5 Japanese cats, aging 3 to 6 years old were used, which were raised in an animal hospital and for which no abnormalities were observed clinically and by blood test. The subject cats were individually placed in each cage in which each cat was allowed to take water ad libitum, and each cat was fed twice a day after measuring the necessary items. For the purpose of acclimatization, the cats were measured for blood pressure noninvasively twice a day for 2 weeks.
Blood pressure and heart rate were measured as follows: These were noninvasively measured oscillometrically by using Life Scope 9 produced by NIHON KOHDEN. Systolic pressure, diastolic pressure and heart rate were measured 5 times each before the administration of beraprost sodium and 30 minutes, 1 hour, 2 hours and 3 hours after administration of beraprost sodium at the right foreleg of each cat. From the 5 measured values, the maximum and minimum values were excluded, and the average of the remaining 3 measured values was adopted as the measured value of the individual at the time point. The measurements were carried out every time for 7 days, and the responses by the respective administrations had about the same pattern. In the Example, the results (FIGS. 1 and 2) at the first administration of beraprost sodium are shown as a representative.
In each administration series, the same cat was used in each administration series as the subject cat for the correctness of the evaluation of the test drug. To eliminate the influence of the test drug of the previous series, wash out period of 2 weeks were given after the termination of the respective series. In the beraprost sodium administration series and the placebo administration series, the solution-containing capsules prepared in Example 2 were used. Administration was performed orally at fasting twice a day at intervals of 12 hours for continuous 7 days.
Statistical analysis was carried out using a statistical software Stat View J-4.5 (Abacus Concepts). Since the parameter values before and after the administration to the same individual are compared, significant test was carried out by the paired t-test. In any of the cases, when the significance level was less than 5%, it was judged as significant.

[4] = system: immune complex-induced glomerulonephritis mouse NZB/WF1; settings: administered before onset; cited from earlier work
[5] = system: patients with renal failure; settings: renal failure in conservative stage; cited from earlier work
[6] = system: cats with chronic renal failure; assay: Blood biochemical analysis and urinalysis (BUN, serum Cre, glucose) in cats with chronic renal failure; format: in vivo, cat; settings: Case-G; for Cre: 40 μg/head/BID
cats with renal failure = assay: Body weight of cats with renal failure during administration; format: in vivo, cat
Experimental: as §1

[7] = first administration, 10-100 μg/kg oral

CC#CC[C@@H](C)[C@H](O)/C=C/[C@@H]1[C@H]2c3cccc(CCCC(=O)[O-])c3O[C@H]2C[C@H]1O.[Na+] (mixture of isomers) [beraprost sodium, Sodium rac-(1R,2R,3aS,8bS)-2,3,3a,8b-tetrahydro-2-hydroxy-1-[(E)-(3S,4RS)-3-hydroxy-4-methyloct-1-en-6-ynyl]-1H-cyclopenta[b][1]benzofuran-5-butanoate]
BUN [1]: did not almost change | serum Cre value [1]: continuously increased | adverse events such as diarrhea, vomiting ([2]; Case-A, 150 μg oral BID, 6 months): no adverse event | adverse events ([2]; Case-B, daily administration continued for 1 and half years): no adverse event has been observed at all | adverse events such as diarrhea, vomiting ([2]; Case-C, 150 μg oral BID alone): no adverse event | adverse events such as diarrhea, vomiting ([2]; Case-D, 150 μg oral BID alone): no adverse event | adverse events such as diarrhea, vomiting ([2]; Case-E, 150 μg oral BID, combination therapy): no adverse event | adverse events such as diarrhea, vomiting ([2]; Case-F, 150 μg oral BID, combination therapy): no adverse event | adverse events such as diarrhea, vomiting ([2]; Case-G, 40 μg/head/BID): no adverse event | clinical score (full points 5) [3]: 5 points | maximum change in heart rate (increase) (healthy cats; 100 μg/kg oral, 30 minutes after administration): about 25% | time to restoration of heart rate to the level before administration (healthy cats; any dose (10-100 μg/kg oral)): ≤ 2 h | diastolic pressure (healthy cats; [7]): No significant change | pulse pressure (healthy cats; [7]): No significant change | systolic pressure (healthy cats; [7]): No significant change | change in heart rate (healthy cats; from 30 μg/kg/BID oral, 30 minutes to 1 hour after administration, not at 10 μg/kg/BID): significant (p<0.05) dose-dependent increase | onset of glomerulonephritis (index: urinary excretion of albumin) [4]: can be inhibited | renal function (creatinine clearance or reciprocal of serum creatinine) [5]: reduced the decrease in renal function | BUN value ([6]; 40 μg/head/BID tablets alone): almost kept constant | Cre ([6]; Day 28): 2.79 mg/dL | Cre ([6]; Day 56): 3.02 mg/dL | Changes in Body Weight during Administration of Beraprost Sodium (cats with renal failure; Case-A, age 5, month 0): 5.2 kg | Changes in Body Weight during Administration of Beraprost Sodium (cats with renal failure; Case-A, month 1): 5.5 kg | Changes in Body Weight during Administration of Beraprost Sodium (cats with renal failure; Case-A, month 2): 5.5 kg | Changes in Body Weight during Administration of Beraprost Sodium (cats with renal failure; Case-A, month 3): 5.5 kg | Changes in Body Weight during Administration of Beraprost Sodium (cats with renal failure; Case-A, month 4): 5.7 kg | Changes in Body Weight during Administration of Beraprost Sodium (cats with renal failure; Case-A, month 5): 5.7 kg | Changes in Body Weight during Administration of Beraprost Sodium (cats with renal failure; Case-A, month 6): 6.0 kg | Changes in Body Weight during Administration of Beraprost Sodium (cats with renal failure; Case-B, age 4, month 0): 3.5 kg | Changes in Body Weight during Administration of Beraprost Sodium (cats with renal failure; Case-B, month 1): 3.6 kg | Changes in Body Weight during Administration of Beraprost Sodium (cats with renal failure; Case-B, month 2): 3.6 kg | Changes in Body Weight during Administration of Beraprost Sodium (cats with renal failure; Case-B, month 3): 3.7 kg | Changes in Body Weight during Administration of Beraprost Sodium (cats with renal failure; Case-B, month 4): 3.9 kg | Changes in Body Weight during Administration of Beraprost Sodium (cats with renal failure; Case-B, month 5): 4.0 kg | Changes in Body Weight during Administration of Beraprost Sodium (cats with renal failure; Case-B, month 6): 4.0 kg | body weight (cats with renal failure; Case-B, with amelioration of uremic symptoms): increased | Changes in Body Weight during Administration of Beraprost Sodium (cats with renal failure; Case-C, age 16, month −1 (before administration)): 2.8 kg | Changes in Body Weight during Administration of Beraprost Sodium (cats with renal failure; Case-C, month 0): 2.7 kg | Changes in Body Weight during Administration of Beraprost Sodium (cats with renal failure; Case-C, month 1): 2.8 kg | Changes in Body Weight during Administration of Beraprost Sodium (cats with renal failure; Case-C, month 2): 2.9 kg | Changes in Body Weight during Administration of Beraprost Sodium (cats with renal failure; Case-C, month 3): 2.9 kg | Changes in Body Weight during Administration of Beraprost Sodium (cats with renal failure; Case-C, month 4): 2.9 kg | Changes in Body Weight during Administration of Beraprost Sodium (cats with renal failure; Case-C, month 5): 3.0 kg | Changes in Body Weight during Administration of Beraprost Sodium (cats with renal failure; Case-C, month 6): 3.0 kg | Changes in Body Weight during Administration of Beraprost Sodium (cats with renal failure; Case-D, age 17, month −1 (before administration)): 4.5 kg | body weight (cats with renal failure; Case-D, after one month): increased | Changes in Body Weight during Administration of Beraprost Sodium (cats with renal failure; Case-D, month 0): 4.5 kg | Changes in Body Weight during Administration of Beraprost Sodium (cats with renal failure; Case-D, month 1): 4.5 kg | Changes in Body Weight during Administration of Beraprost Sodium (cats with renal failure; Case-D, month 2): 4.9 kg | Changes in Body Weight during Administration of Beraprost Sodium (cats with renal failure; Case-D, month 3): 4.9 kg | Changes in Body Weight during Administration of Beraprost Sodium (cats with renal failure; Case-D, month 4): 4.9 kg | Changes in Body Weight during Administration of Beraprost Sodium (cats with renal failure; Case-D, month 5): 4.9 kg | Changes in Body Weight during Administration of Beraprost Sodium (cats with renal failure; Case-E, age 14, combination therapy, month 0): 3.5 kg | Changes in Body Weight during Administration of Beraprost Sodium (cats with renal failure; Case-E, combination therapy, month 1): 3.8 kg | Changes in Body Weight during Administration of Beraprost Sodium (cats with renal failure; Case-E, combination therapy, month 2): 3.7 kg | Changes in Body Weight during Administration of Beraprost Sodium (cats with renal failure; Case-E, combination therapy, month 3): 3.6 kg | Changes in Body Weight during Administration of Beraprost Sodium (cats with renal failure; Case-E, combination therapy, month 4): 3.7 kg | Changes in Body Weight during Administration of Beraprost Sodium (cats with renal failure; Case-E, combination therapy, month 5): 3.7 kg | Changes in Body Weight during Administration of Beraprost Sodium (cats with renal failure; Case-E, combination therapy, month 6): 3.6 kg | Changes in Body Weight during Administration of Beraprost Sodium (cats with renal failure; Case-F, age 11, combination therapy, month 0): 4.7 kg | Changes in Body Weight during Administration of Beraprost Sodium (cats with renal failure; Case-F, combination therapy, month 1): 5.0 kg | Changes in Body Weight during Administration of Beraprost Sodium (cats with renal failure; Case-F, combination therapy, month 2): 5.0 kg | Changes in Body Weight during Administration of Beraprost Sodium (cats with renal failure; Case-F, combination therapy, month 3): 5.5 kg | Changes in Body Weight during Administration of Beraprost Sodium (cats with renal failure; Case-F, combination therapy, month 4): 5.5 kg | Changes in Body Weight during Administration of Beraprost Sodium (cats with renal failure; Case-F, combination therapy, month 5): 5.7 kg | Changes in Body Weight during Administration of Beraprost Sodium (cats with renal failure; Case-F, combination therapy, month 6): 5.8 kg | body weight (cats with renal failure; Case-G, 40 μg/head/BID, Day 14): 3.83 kg | body weight (cats with renal failure; Case-G, 40 μg/head/BID, Day 56): 3.95 kg | body weight (cats with renal failure; Case-G, before the administration (baseline)): 3.2 kg
